Where two headings read alike, the source gives them in different places.
How the values were obtained:
human mu opioid receptor [1] = target: T1, human mu opioid receptor (Homo sapiens, UniProt P35372); assay: Radioligand binding assay, [3H]-Diprenorphine displacement, human mu opioid receptor
human mu opioid receptor [2] = target: T1, human mu opioid receptor; assay: Human mu [35S]GTPγS nucleotide exchange assay in membranes from CHO-K1 cells; format: biochemical; details: read-out: intrinsic activity (IA), bound [35S]GTPγS relative to DAMGO (IA=100)
[3] = test system: loperamide-induced delayed gastric emptying; assay: Rat gastric emptying assay, reversal of loperamide-induced delayed gastric emptying; format: in vivo; details: administered orally, loperamide 1 mg/kg subcutaneous
[4] = expressed as a percentage of activation by DAMGO

T1 sequence (P35372 whole entry): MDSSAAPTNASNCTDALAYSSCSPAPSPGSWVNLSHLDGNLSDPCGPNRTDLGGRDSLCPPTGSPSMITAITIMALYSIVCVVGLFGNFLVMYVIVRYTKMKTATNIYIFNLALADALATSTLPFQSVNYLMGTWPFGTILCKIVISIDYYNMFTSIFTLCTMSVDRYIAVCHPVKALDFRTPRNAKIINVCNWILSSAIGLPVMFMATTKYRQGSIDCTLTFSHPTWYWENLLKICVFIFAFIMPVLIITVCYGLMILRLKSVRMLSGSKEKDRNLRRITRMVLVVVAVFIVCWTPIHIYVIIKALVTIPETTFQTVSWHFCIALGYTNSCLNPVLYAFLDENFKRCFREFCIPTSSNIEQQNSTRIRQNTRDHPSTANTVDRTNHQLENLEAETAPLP

SMILES | Ki (human mu opioid receptor [1]; [3H]-Diprenorphine 0.5 nM, CHO-K1 membranes, read-out: pKi at the human mu opioid receptor (converted)) [nM] | Emax (human mu opioid receptor [2]; [4]) [%] | Ki (human mu opioid receptor [1]) [nM] | Emax (human mu opioid receptor [2]) [%] | ID50, dose required for 50% reversal of the effects of loperamide [3] [mg/kg]
CCC1(CC)c2cc(O)ccc2C[C@H](OC)[C@H]1NCC[C@H](CC1CCCCC1)C(=O)O [Example 12, (S)-2-Cyclohexylmethyl-4-((2S,3S)-1,1-diethyl-7-hydroxy-3-methoxy-1,2,3,4-tetrahydro-naphthalen-2-ylamino)-butyric acid] | – | – | 0.2 | -5 | 0.05
CCC1(CC)c2cc(C(N)=O)ccc2C[C@H](OC)[C@H]1NCC[C@H](CC(C)C)C(=O)OC [Example 7-A, (S)-2-[2-((2S,3S)-7-Carbamoyl-1,1-diethyl-3-methoxy-1,2,3,4-tetrahydro-naphthalen-2-ylamino)-ethyl]-4-methyl-pentanoic acid methyl ester] | – | – | – | 8 | –
CCC1(CC)c2cc(C(N)=O)ccc2C[C@H](OC)[C@H]1NCC[C@H](CC1CCCCC1)C(=O)O [Example 1, (S)-4-((2S,3S)-7-Carbamoyl-1,1-diethyl-3-methoxy-1,2,3,4-tetrahydro-naphthalen-2-ylamino)-2-cyclohexylmethyl-butyric acid] | – | – | – | – | 0.09
CCC1(CC)c2cc(C(N)=O)ccc2C[C@H](OC)[C@H]1NCC[C@@H](CC1CCCCC1)C(=O)O [Example 10-G, (R)-4-((2S,3S)-7-Carbamoyl-1,1-diethyl-3-methoxy-1,2,3,4-tetrahydro-naphthalen-2-ylamino)-2-cyclohexylmethyl-butyric acid] | – | – | 0.251 | 7 | 0.12

Now from value to compound, other results behind:

Ki (human mu opioid receptor [1]; [3H]-Diprenorphine 0.5 nM, CHO-K1 membranes, read-out: pKi at the human mu opioid receptor (converted)) [nM] | Emax (human mu opioid receptor [2]; [4]) [%] | SMILES | Ki (human mu opioid receptor [1]) [nM] | Emax (human mu opioid receptor [2]) [%] | ID50, dose required for 50% reversal of the effects of loperamide [3] [mg/kg]
0.631 | -2 | CCCCC[C@@H](CCN[C@@H]1[C@@H](OC)Cc2ccc(C(N)=O)cc2C1(CC)CC)C(=O)O [Example 9, (S)-2-[2-((2S,3S)-7-Carbamoyl-1,1-diethyl-3-methoxy-1,2,3,4-tetrahydro-naphthalen-2-ylamino)-ethyl]-heptanoic acid] | – | – | 0.10
– | 17 | CCC1(CC)c2cc(C(N)=O)ccc2C[C@@H](OC)[C@@H]1NCC[C@@H](CC1CCCCC1)C(=O)OC [Example 5, (R)-4-((2R,3R)-7-Carbamoyl-1,1-diethyl-3-methoxy-1,2,3,4-tetrahydro-naphthalen-2-ylamino)-2-cyclohexylmethyl-butyric acid methyl ester] | – | – | –
– | 19 | CCC1(CC)c2cc(C(N)=O)ccc2CC(OC)[C@H]1NCC[C@@H](CC1CCCCC1)C(=O)OC (mixture of isomers) [Example 6, (R)-4-((2S,3SR)-7-Carbamoyl-1,1-diethyl-3-methoxy-1,2,3,4-tetrahydro-naphthalen-2-ylamino)-2-cyclohexylmethyl-butyric acid methyl ester] | – | – | –
– | -5 | CCC1(CC)c2cc(C(N)=O)ccc2C[C@H](OC)[C@H]1NCC[C@H](CC1CCCCC1)C(=O)OC [Example 2, (S)-4-((2S,3S)-7-Carbamoyl-1,1-diethyl-3-methoxy-1,2,3,4-tetrahydro-naphthalen-2-ylamino)-2-cyclohexylmethyl-butyric acid methyl ester] | – | – | –
